# US20230085307A1, “PYRIDAZINONE COMPOUND AND HERBICIDE” (NISSAN CHEMICAL CORPORATION, priority 2019, published 2023)
# Legend:
# redroot pigweed [1] = assay: Test Example 4: herbicidal effect by soil treatment (Table 19, symbol N); type: in vivo, redroot pigweed (Amaranthus retroflexus); settings: amount of applied herbicide 320 g/ha
# How it was run: (§1)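 Step 1: sow seeds in sterilized diluvial soil, cover ~1.5 cm. Step 2: spray diluted emulsion onto soil surface at predetermined rate. Step 3: greenhouse, 25–30° C, three weeks. Step 4: grade effect on each plant by earlier criteria.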
# blackgrass [2] = assay: Test Example 5: herbicidal effect by foliage application, plastic box (Table 20, symbol J); type: in vivo, blackgrass (Alopecurus myosuroides); settings: 320 g/ha; for J: blackgrass, herbicidal effect grade: foliage application, three weeks after application; for herbicidal effect on J: blackgrass (evaluation grade 0-5): foliage application after 14-day growth, evaluated three weeks after application
# How it was run: (§2)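 Foliar spray test: emulsion formulation diluted in water to a set application rate, sprayed onto 14-day-old plants raised in diluvial soil at 25° C to 30° C under glass. Both herbicidal effect and crop effect rated visually three weeks later.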
# rice flat sedge = assay: Test Example 3: herbicidal effect by foliage application, Wagner pot (Table 18, symbol E); type: in vivo, rice flat sedge (Cyperus iria); settings: 320 g/ha
# How it was run: (§3)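 Plants were sown in alluvial soil held under 0.1–0.5 cm standing water and grown 14 days in a greenhouse at 25–30 °C. An emulsifiable formulation, water-diluted to the set dose, was then sprayed onto the foliage, and effects were scored three weeks later using previously defined criteria.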
# velvetleaf = assay: Test Example 5: herbicidal effect by foliage application, plastic box (Table 20, symbol M); type: in vivo, velvetleaf (Abutilon theophrasti); settings: 320 g/ha; for M: velvetleaf, herbicidal effect grade: foliage application, three weeks after application; for herbicidal effect on M: velvetleaf (evaluation grade 0-5): foliage application after 14-day growth, evaluated three weeks after application
# How it was run: as §2
# green foxtail [3] = assay: Test Example 4: herbicidal effect by soil treatment (Table 19, symbol G); type: in vivo, green foxtail (Setaria viridis); settings: amount of applied herbicide 320 g/ha
# How it was run: as §1
# southern crabgrass = assay: Test Example 4: herbicidal effect by soil treatment (Table 19, symbol F); type: in vivo, southern crabgrass (Digitaria ciliaris); settings: amount of applied herbicide 320 g/ha
# How it was run: as §1
# late watergrass = assay: Test Example 1: herbicidal activity, application before weed generation under submerged conditions (Table 16, symbol A); type: in vivo, late watergrass (Echinochloa oryzicola); settings: amount of applied herbicide 320 g/ha
# How it was run: (§4)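 Alluvial soil was flooded to 4 cm depth, weed seeds were sown mixed and 2.5-leaf rice seedlings were transplanted. On sowing day, the compound's emulsion, diluted in water to a set dose, was applied to the water surface. Plants grew at 25–30 °C and were scored 0–5 after three weeks.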
# Italian ryegrass = assay: Test Example 5: herbicidal effect by foliage application, plastic box (Table 20, symbol K); type: in vivo, Italian ryegrass (Lolium multiflorum); settings: 320 g/ha; for K: Italian ryegrass, herbicidal effect grade: foliage application, three weeks after application; for herbicidal effect on K: Italian ryegrass (evaluation grade 0-5): foliage application after 14-day growth, evaluated three weeks after application
# How it was run: as §2
# blackgrass [4] = assay: Test Example 4: herbicidal effect by soil treatment (Table 19, symbol J); type: in vivo, blackgrass (Alopecurus myosuroides); settings: amount of applied herbicide 320 g/ha
# How it was run: as §1
# lambsquarters = assay: Test Example 5: herbicidal effect by foliage application, plastic box (Table 20, symbol O); type: in vivo, lambsquarters (Chenopodium album); settings: 320 g/ha; for O: lambsquarters, herbicidal effect grade: foliage application, three weeks after application; for herbicidal effect on O: lambsquarters (evaluation grade 0-5): foliage application after 14-day growth, evaluated three weeks after application
# How it was run: as §2
# redroot pigweed [5] = assay: Test Example 5: herbicidal effect by foliage application, plastic box (Table 20, symbol N); type: in vivo, redroot pigweed (Amaranthus retroflexus); settings: 320 g/ha; for N: redroot pigweed, herbicidal effect grade: foliage application, three weeks after application; for herbicidal effect on N: redroot pigweed (evaluation grade 0-5): foliage application after 14-day growth, evaluated three weeks after application
# How it was run: as §2
# barnyard grass [6] = assay: Test Example 5: herbicidal effect by foliage application, plastic box (Table 20, symbol H); type: in vivo, barnyard grass (Echinochloa crus-galli); settings: 320 g/ha; for H: barnyard grass, herbicidal effect grade: foliage application, three weeks after application; for herbicidal effect on H: barnyard grass (evaluation grade 0-5): foliage application after 14-day growth, evaluated three weeks after application
# How it was run: as §2
# green foxtail [7] = assay: Test Example 5: herbicidal effect by foliage application, plastic box (Table 20, symbol G); type: in vivo, green foxtail (Setaria viridis); settings: 320 g/ha; for G: green foxtail, herbicidal effect grade: foliage application, three weeks after application; for herbicidal effect on G: green foxtail (evaluation grade 0-5): foliage application after 14-day growth, evaluated three weeks after application
# How it was run: as §2
# Japanese bulrush = assay: Test Example 1: herbicidal activity, application before weed generation under submerged conditions (Table 16, symbol B); type: in vivo, Japanese bulrush (Schoenoplectus juncoides); settings: amount of applied herbicide 320 g/ha
# How it was run: as §4
# persian speedwell = assay: Test Example 5: herbicidal effect by foliage application, plastic box (Table 20, symbol R); type: in vivo, Persian speedwell (Veronica persica); settings: 320 g/ha; for R: persian speedwell, herbicidal effect grade: foliage application, three weeks after application; for herbicidal effect on R: persian speedwell (evaluation grade 0-5): foliage application after 14-day growth, evaluated three weeks after application
# How it was run: as §2
# Chinese sprangletop = assay: Test Example 3: herbicidal effect by foliage application, Wagner pot (Table 18, symbol D); type: in vivo, chinese sprangletop (Leptochloa chinensis); settings: 320 g/ha
# How it was run: as §3
# windgrass = assay: Test Example 5: herbicidal effect by foliage application, plastic box (Table 20, symbol L); type: in vivo, windgrass (Apera spica-venti); settings: 320 g/ha; for L: windgrass, herbicidal effect grade: foliage application, three weeks after application; for herbicidal effect on L: windgrass (evaluation grade 0-5): foliage application after 14-day growth, evaluated three weeks after application
# How it was run: as §2
# barnyard grass [8] = assay: Test Example 3: herbicidal effect by foliage application, Wagner pot (Table 18, symbol H); type: in vivo, barnyard grass (Echinochloa crus-galli); settings: 320 g/ha
# How it was run: as §3
SMILES,"J: blackgrass, herbicidal effect grade (blackgrass [2])",herbicidal effect on rice flat sedge (E) (rice flat sedge),"M: velvetleaf, herbicidal effect grade (velvetleaf)","Herbicidal effect, A: late watergrass (late watergrass)","K: Italian ryegrass, herbicidal effect grade (Italian ryegrass)","O: lambsquarters, herbicidal effect grade (lambsquarters)","N: redroot pigweed, herbicidal effect grade (redroot pigweed [5])","H: barnyard grass, herbicidal effect grade (barnyard grass [6])","G: green foxtail, herbicidal effect grade (green foxtail [7])","Herbicidal effect, B: Japanese bulrush (Japanese bulrush)","R: persian speedwell, herbicidal effect grade (persian speedwell)",herbicidal effect on Chinese sprangletop (D) (Chinese sprangletop),"L: windgrass, herbicidal effect grade (windgrass)",herbicidal effect on barnyard grass (H) (barnyard grass [8]),"Herbicidal effect by soil treatment, N: redroot pigweed (redroot pigweed [1])","Herbicidal effect by soil treatment, G: green foxtail (green foxtail [3])","Herbicidal effect by soil treatment, F: southern crabgrass (southern crabgrass)","Herbicidal effect by soil treatment, J: blackgrass (blackgrass [4])",herbicidal effect on J: blackgrass (evaluation grade 0-5) (blackgrass [2]),herbicidal effect on M: velvetleaf (evaluation grade 0-5) (velvetleaf),other results
COc1ccccc1-c1sc2cc(OCCSC)ccc2c1-c1c(O)c(C)nn(C)c1=O [3-125],5 (Herbicidal rate of 90% or more (almost completely withered)),5 (Herbicidal rate of 90% or more (almost completely withered)),4 (Herbicidal rate of 70% or more and less than 90%),3 (Herbicidal rate of 40% or more and less than 70%),5 (Herbicidal rate of 90% or more (almost completely withered)),4 (Herbicidal rate of 70% or more and less than 90%),5 (Herbicidal rate of 90% or more (almost completely withered)),3 (Herbicidal rate of 40% or more and less than 70%),5 (Herbicidal rate of 90% or more (almost completely withered)),3 (Herbicidal rate of 40% or more and less than 70%),5 (Herbicidal rate of 90% or more (almost completely withered)),3 (Herbicidal rate of 40% or more and less than 70%),5 (Herbicidal rate of 90% or more (almost completely withered)),5 (Herbicidal rate of 90% or more (almost completely withered)),,,,,,,"N: redroot pigweed, herbicidal effect grade (redroot pigweed [1]): 5 (Herbicidal rate of 90% or more (almost completely withered)); G: green foxtail, herbicidal effect grade (green foxtail [3]): 2 (Herbicidal rate of 20% or more and less than 40%); F: southern crabgrass, herbicidal effect grade (southern crabgrass): 3 (Herbicidal rate of 40% or more and less than 70%); J: blackgrass, herbicidal effect grade (blackgrass [4]): 5 (Herbicidal rate of 90% or more (almost completely withered))"
COc1ccccc1-c1sc2cc(OCC3CCCO3)ccc2c1-c1c(O)c(C)nn(C)c1=O (stereo not drawn) [3-133],5 (Herbicidal rate of 90% or more (almost completely withered)),5 (Herbicidal rate of 90% or more (almost completely withered)),3 (Herbicidal rate of 40% or more and less than 70%),3 (Herbicidal rate of 40% or more and less than 70%),5 (Herbicidal rate of 90% or more (almost completely withered)),5 (Herbicidal rate of 90% or more (almost completely withered)),5 (Herbicidal rate of 90% or more (almost completely withered)),3 (Herbicidal rate of 40% or more and less than 70%),5 (Herbicidal rate of 90% or more (almost completely withered)),3 (Herbicidal rate of 40% or more and less than 70%),5 (Herbicidal rate of 90% or more (almost completely withered)),3 (Herbicidal rate of 40% or more and less than 70%),5 (Herbicidal rate of 90% or more (almost completely withered)),3 (Herbicidal rate of 40% or more and less than 70%),5 (Herbicidal rate of 90% or more (almost completely withered)),5 (Herbicidal rate of 90% or more (almost completely withered)),2 (Herbicidal rate of 20% or more and less than 40%),3 (Herbicidal rate of 40% or more and less than 70%),,,
COc1ccc2c(-c3c(OC(=O)c4ccccc4OC)c(C)nn(C)c3=O)c(-c3ccccc3OC)sc2c1 [3-158],,4 (Herbicidal rate of 70% or more and less than 90%),,5 (Herbicidal rate of 90% or more (almost completely withered)),,,,,,5 (Herbicidal rate of 90% or more (almost completely withered)),,3 (Herbicidal rate of 40% or more and less than 70%),,5 (Herbicidal rate of 90% or more (almost completely withered)),2 (Herbicidal rate of 20% or more and less than 40%),0 (Herbicidal rate of 5% or less (almost no effect)),0 (Herbicidal rate of 5% or less (almost no effect)),0 (Herbicidal rate of 5% or less (almost no effect)),5 (Herbicidal rate of 90% or more (almost completely withered)),5 (Herbicidal rate of 90% or more (almost completely withered)),herbicidal effect on K: Italian ryegrass (evaluation grade 0-5) (Italian ryegrass): 4 (Herbicidal rate of 70% or more and less than 90%); herbicidal effect on O: lambsquarters (evaluation grade 0-5) (lambsquarters): 5 (Herbicidal rate of 90% or more (almost completely withered)); herbicidal effect on N: redroot pigweed (evaluation grade 0-5) (redroot pigweed [5]): 5 (Herbicidal rate of 90% or more (almost completely withered)); herbicidal effect on H: barnyard grass (evaluation grade 0-5) (barnyard grass [6]): 5 (Herbicidal rate of 90% or more (almost completely withered)); herbicidal effect on G: green foxtail (evaluation grade 0-5) (green foxtail [7]): 5 (Herbicidal rate of 90% or more (almost completely withered)); herbicidal effect on R: persian speedwell (evaluation grade 0-5) (persian speedwell): 5 (Herbicidal rate of 90% or more (almost completely withered)); herbicidal effect on L: windgrass (evaluation grade 0-5) (windgrass): 5 (Herbicidal rate of 90% or more (almost completely withered))
CCCOc1ccc(-c2sc3c(Cl)cccc3c2-c2c(OC(=O)CCC)c(C)nn(C)c2=O)cc1 [4-028],,5 (Herbicidal rate of 90% or more (almost completely withered)),,3 (Herbicidal rate of 40% or more and less than 70%),,,,,,3 (Herbicidal rate of 40% or more and less than 70%),,3 (Herbicidal rate of 40% or more and less than 70%),,5 (Herbicidal rate of 90% or more (almost completely withered)),4 (Herbicidal rate of 70% or more and less than 90%),0 (Herbicidal rate of 5% or less (almost no effect)),0 (Herbicidal rate of 5% or less (almost no effect)),0 (Herbicidal rate of 5% or less (almost no effect)),0 (Herbicidal rate of 5% or less (almost no effect)),5 (Herbicidal rate of 90% or more (almost completely withered)),herbicidal effect on K: Italian ryegrass (evaluation grade 0-5) (Italian ryegrass): 2 (Herbicidal rate of 20% or more and less than 40%); herbicidal effect on O: lambsquarters (evaluation grade 0-5) (lambsquarters): 5 (Herbicidal rate of 90% or more (almost completely withered)); herbicidal effect on N: redroot pigweed (evaluation grade 0-5) (redroot pigweed [5]): 5 (Herbicidal rate of 90% or more (almost completely withered)); herbicidal effect on H: barnyard grass (evaluation grade 0-5) (barnyard grass [6]): 5 (Herbicidal rate of 90% or more (almost completely withered)); herbicidal effect on G: green foxtail (evaluation grade 0-5) (green foxtail [7]): 3 (Herbicidal rate of 40% or more and less than 70%); herbicidal effect on R: persian speedwell (evaluation grade 0-5) (persian speedwell): 5 (Herbicidal rate of 90% or more (almost completely withered)); herbicidal effect on L: windgrass (evaluation grade 0-5) (windgrass): 0 (Herbicidal rate of 5% or less (almost no effect))
